Values quoted from earlier work in patent US11532831B1, “Redox-active compounds and uses thereof” (Palo Alto Research Center Incorporated, priority 2021, dated 2022).

Assays:
[1] = cited from earlier work
[2] = on platinum (footnote); cited from earlier work

| Substance | Solubility at pH 7 [1] | Kinetic rate constant [2] |
| --- | --- | --- |
| iron(II) (Fe^2+)/iron(III) (Fe^3+) [Fe^2+/Fe^3+] | insoluble |  |
| ethylenediaminetetraacetatoferrate(2-) (Fe(II)-EDTA)/ethylenediaminetetraacetatoferrate(1-) (Fe(III)-EDTA) [Fe(EDTA)] |  | 0.026 cm/s |
| bis(trimethylammoniopropyl)ferrocene [BTMAP-Fc] | 1.9M |  |
